Active and inactive are the calls of the source.
Legend:
Format in all cases: functional, cell-based
MRC5 [1] = assay: Compound was tested for antiviral activity against CMV (cytomegalovirus) (AD169) at a concentration of 100 ug/mL in MRC-5 (human fibroblast) cells; IA denotes inactive
MRC5 [2] = assay: Compound was tested for antiviral activity against HSV-1 (SC16 strain)at a concentration of 100 ug/mL in MRC-5 (human fibroblast) cells; IA denotes inactive
MRC5 [3] = assay: Compound was tested for antiviral activity against VZV (Ellen) strain at a concentration of 100 ug/mL in MRC-5 (human fibroblast) cells; IA denotes inactive
MRC5 [4] = assay: Compound was tested for antiviral activity against HSV-2 (MS) strain at a concentration of 100 ug/mL in MRC-5 (human fibroblast) cells; IA denotes inactive

Measured: Antiviral activity

Nc1nc(O)c2ncn(C3CC3(CO)CO)c2n1 (centres undefined)
inactive: all assays above
